Measurements published in PubChem BioAssay AID651817 (Broad Institute, 2012).
Calls of active or inactive are those of the source.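 Rule for the calls: active = compound whose fitted luminescence drop, meaning cytotoxicity, reaches half effect at most twice its top valid tested dose; inconclusive = flat curve with a moderate drop, or an unreliable fit; inactive = rise instead of drop, flat response, or weaker potency.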

Assay: NIH/3T3 fibroblast cytotoxicity, dose response, cytotoxicity control for T. cruzi growth inhibitor project, cell-based, cherry-pick samples, set 2 (AID 651817)
Conditions: NIH/3T3 viability, ATP luminescence (CellTiter-Glo), 90 h; at 4.2 µM (top of the series)

| Structure (SMILES) | activity change, negative = cytotoxicity |
| --- | --- |
| C[C@@H]1CN([C@H](C)CO)C(=O)c2cccc(NC(=O)Nc3ccc(C(F)(F)F)cc3)c2O[C@@H]1CN(C)Cc1ccc(Cl)c(Cl)c1 | 37.5% (inactive) |

Same assay, conditions: NIH/3T3 viability, ATP luminescence (CellTiter-Glo), 90 h; at 19.5 µM (top of the series)

| Structure (SMILES) | activity change, negative = cytotoxicity |
| --- | --- |
| COc1ccc(CN(C)C[C@@H]2Oc3c(NC(=O)Nc4ccc(C(F)(F)F)cc4)cccc3C(=O)N([C@H](C)CO)C[C@@H]2C)cc1 | -21.3% (inactive) |
| C[C@@H]1CN([C@H](C)CO)C(=O)c2cccc(NC(=O)c3nc4ccccc4s3)c2O[C@@H]1CN(C)S(=O)(=O)c1ccccc1 | 35.6% (inactive) |
| C[C@@H]1CN([C@H](C)CO)C(=O)Cc2cc(NS(=O)(=O)c3ccccc3)ccc2O[C@@H]1CN(C)S(=O)(=O)c1ccc(Cl)cc1 | -10.7% (inactive) |
| C[C@@H]1CN([C@H](C)CO)C(=O)c2cccc(NC(=O)c3ccncc3)c2O[C@H]1CN(C)Cc1ccc(Oc2ccccc2)cc1 | -6.58% (inactive) |
| C[C@H](CO)N1C[C@H](C)[C@@H](CN(C)S(=O)(=O)c2ccc(Cl)cc2)Oc2c(NC(=O)c3nc4ccccc4s3)cccc2C1=O | 14.7% (inactive) |
| C[C@@H]1CN([C@@H](C)CO)C(=O)c2cccc(NC(=O)c3ccncc3)c2O[C@H]1CN(C)Cc1ccc(C(F)(F)F)cc1 | 0.884% (inactive) |
| Cc1ccc(S(=O)(=O)Nc2ccc3c(c2)CC(=O)N([C@H](C)CO)C[C@@H](C)[C@@H](CN(C)Cc2ccccc2)O3)cc1 | -12.9% (inactive) |
| C[C@H]1CN([C@@H](C)CO)C(=O)c2cccc(NC(=O)c3ccncc3)c2O[C@H]1CN(C)Cc1ccc(-c2ccccc2)cc1 | 18.2% (inactive) |
| C[C@H]1CN([C@@H](C)CO)C(=O)c2cccc(NC(=O)c3nc4ccccc4s3)c2O[C@@H]1CN(C)S(=O)(=O)c1ccc(Cl)cc1 | -9.43% (inactive) |
| C[C@@H]1CN([C@H](C)CO)C(=O)c2cccc(NC(=O)c3ccncc3)c2O[C@@H]1CN(C)Cc1ccc(-c2ccccc2)cc1 | 6.2% (inactive) |
| C[C@@H]1CN([C@@H](C)CO)C(=O)Cc2cc(NS(=O)(=O)c3ccccc3)ccc2O[C@H]1CN(C)S(=O)(=O)c1ccc(Cl)cc1 | 0.768% (inactive) |
| C[C@@H]1CN([C@@H](C)CO)C(=O)c2cccc(NC(=O)c3ccncc3)c2O[C@@H]1CN(C)Cc1ccc(-c2ccccc2)cc1 | 19.3% (inactive) |
| C[C@H](CO)N1C[C@H](C)[C@@H](CN(C)Cc2ccc(-c3ccccc3)cc2)Oc2c(NC(=O)c3ccncc3)cccc2C1=O | -29.7% (inactive) |
| C[C@H](CO)N1C[C@H](C)[C@H](CN(C)Cc2ccc(Oc3ccccc3)cc2)Oc2c(NC(=O)c3ccncc3)cccc2C1=O | -12.3% (inactive) |
| Cc1noc(C)c1NC(=O)Nc1cccc2c1O[C@H](CN(C)S(C)(=O)=O)[C@@H](C)CN([C@H](C)CO)C2=O | 2.45% (inactive) |
| C[C@@H]1CN([C@H](C)CO)C(=O)c2cccc(NC(=O)c3ccncc3)c2O[C@H]1CN(C)Cc1ccccc1 | 9% (inactive) |
| Cc1noc(C)c1NC(=O)Nc1cccc2c1O[C@@H](CN(C)S(C)(=O)=O)[C@@H](C)CN([C@@H](C)CO)C2=O | -35% (inactive) |
| Cc1ccc(S(=O)(=O)N(C)C[C@@H]2Oc3ccc(NS(=O)(=O)c4ccccc4)cc3CC(=O)N([C@@H](C)CO)C[C@H]2C)cc1 | -8.95% (inactive) |
| C[C@@H]1CN([C@H](C)CO)C(=O)c2cccc(NC(=O)c3nc4ccccc4s3)c2O[C@@H]1CN(C)Cc1ccc2c(c1)OCO2 | -22.1% (inactive) |
| Cc1ccc(S(=O)(=O)Nc2ccc3c(c2)CC(=O)N([C@H](C)CO)C[C@H](C)[C@H](CN(C)Cc2ccccc2)O3)cc1 | -17.1% (inactive) |
| Cc1ccc(S(=O)(=O)N(C)C[C@@H]2Oc3ccc(NS(=O)(=O)c4ccc(Cl)cc4)cc3CC(=O)N([C@@H](C)CO)C[C@H]2C)cc1 | -61.2% (inactive) |
| C[C@H]1CN([C@@H](C)CO)C(=O)c2cccc(NC(=O)c3nc4ccccc4s3)c2O[C@H]1CN(C)Cc1ccc2c(c1)OCO2 | -36.3% (inactive) |
| C[C@@H]1CN([C@@H](C)CO)C(=O)c2cccc(NC(=O)c3ccncc3)c2O[C@H]1CN(C)CC1CC1 | -16.5% (inactive) |
| C[C@@H]1CN([C@H](C)CO)C(=O)c2cccc(NC(=O)c3ccncc3)c2O[C@@H]1CN(C)Cc1ccc(Oc2ccccc2)cc1 | 14.7% (inactive) |

| Structure (SMILES) | activity change, negative = cytotoxicity |
| --- | --- |
| C[C@H](CO)N1C[C@H](C)[C@@H](CN(C)Cc2ccc(Cl)c(Cl)c2)Oc2c(NC(=O)c3ccncc3)cccc2C1=O | -21.9% (inactive) |
| Cc1noc(C)c1NC(=O)Nc1cccc2c1O[C@H](CN(C)S(C)(=O)=O)[C@H](C)CN([C@H](C)CO)C2=O | -14.2% (inactive) |
| Cc1ccc(S(=O)(=O)Nc2ccc3c(c2)CC(=O)N([C@H](C)CO)C[C@H](C)[C@@H](CN(C)S(=O)(=O)c2ccc(Cl)cc2)O3)cc1 | -14.6% (inactive) |
| COc1ccc(CN(C)C[C@H]2Oc3c(NC(=O)c4ccncc4)cccc3C(=O)N([C@@H](C)CO)C[C@@H]2C)cc1 | 5.41% (inactive) |
| C[C@@H]1CN([C@H](C)CO)C(=O)c2cccc(NC(=O)c3ccncc3)c2O[C@@H]1CN(C)Cc1ccccc1 | 4.84% (inactive) |
| Cc1ccc(S(=O)(=O)Nc2ccc3c(c2)CC(=O)N([C@H](C)CO)C[C@H](C)[C@@H](CN(C)Cc2ccccc2)O3)cc1 | -0.645% (inactive) |
| Cc1noc(C)c1NC(=O)Nc1cccc2c1O[C@H](CN(C)S(C)(=O)=O)[C@@H](C)CN([C@@H](C)CO)C2=O | -18.2% (inactive) |
| C[C@@H]1CN([C@@H](C)CO)C(=O)c2cccc(NC(=O)c3ccncc3)c2O[C@@H]1CN(C)Cc1ccc(C(F)(F)F)cc1 | -16.7% (inactive) |
| C[C@@H]1CN([C@@H](C)CO)C(=O)c2cccc(NC(=O)c3ccncc3)c2O[C@H]1CN(C)Cc1ccc2c(c1)OCO2 | -26.4% (inactive) |
| C[C@H](CO)N1C[C@H](C)[C@H](CN(C)Cc2ccc3c(c2)OCO3)Oc2c(NC(=O)c3nc4ccccc4s3)cccc2C1=O | -1.97% (inactive) |
| C[C@@H]1CN([C@@H](C)CO)C(=O)Cc2cc(NS(=O)(=O)c3ccccc3)ccc2O[C@@H]1CN(C)S(=O)(=O)c1ccc(Cl)cc1 | -12.4% (inactive) |
| C[C@@H]1CN([C@H](C)CO)C(=O)c2cccc(NC(=O)c3nc4ccccc4s3)c2O[C@@H]1CN(C)S(=O)(=O)c1ccc(Cl)cc1 | 11.5% (inactive) |
| Cc1ccc(S(=O)(=O)Nc2ccc3c(c2)CC(=O)N([C@@H](C)CO)C[C@H](C)[C@H](CN(C)S(=O)(=O)c2ccc(Cl)cc2)O3)cc1 | -3.56% (inactive) |
| C[C@@H]1CN([C@H](C)CO)C(=O)Cc2cc(NS(=O)(=O)c3ccc(F)cc3)ccc2O[C@H]1CN(C)Cc1ccc(Cl)c(Cl)c1 | -17.9% (inactive) |
| C[C@H]1CN([C@@H](C)CO)C(=O)c2cccc(NC(=O)NC3CCCCC3)c2O[C@@H]1CN(C)S(=O)(=O)c1ccc(F)cc1 | 3.7% (inactive) |
| C[C@H](CO)N1C[C@H](C)[C@H](CN(C)Cc2ccc3c(c2)OCO3)Oc2c(NC(=O)c3ccncc3)cccc2C1=O | -7.03% (inactive) |
| Cc1ccc(S(=O)(=O)N(C)C[C@@H]2Oc3ccc(NS(=O)(=O)c4ccccc4)cc3CC(=O)N([C@H](C)CO)C[C@@H]2C)cc1 | 3.11% (inactive) |
| C[C@H]1CN([C@@H](C)CO)C(=O)c2cccc(NC(=O)c3ccncc3)c2O[C@H]1CN(C)CC1CCCCC1 | 36.4% (inactive) |
| C[C@H](CO)N1C[C@H](C)[C@H](CN(C)S(=O)(=O)c2ccc(Cl)cc2)Oc2ccc(NS(=O)(=O)c3ccc(Cl)cc3)cc2CC1=O | 7.06% (inactive) |
| C[C@@H]1CN([C@H](C)CO)C(=O)c2cccc(NC(=O)c3nc4ccccc4s3)c2O[C@H]1CN(C)S(=O)(=O)c1ccc(Cl)cc1 | -10.1% (inactive) |
| C[C@H](CO)N1C[C@H](C)[C@@H](CN(C)Cc2ccc3c(c2)OCO3)Oc2c(NC(=O)c3ccncc3)cccc2C1=O | -18.8% (inactive) |
| Cc1noc(C)c1NC(=O)Nc1cccc2c1O[C@@H](CN(C)S(C)(=O)=O)[C@@H](C)CN([C@H](C)CO)C2=O | 13.3% (inactive) |
| C[C@@H]1CN([C@H](C)CO)C(=O)c2cccc(NC(=O)c3ccncc3)c2O[C@@H]1CN(C)Cc1ccc(Cl)c(Cl)c1 | -9.65% (inactive) |

Same assay, conditions: NIH/3T3 viability, ATP luminescence (CellTiter-Glo), 90 h; at 21 µM (top of the series)

| Structure (SMILES) | activity change, negative = cytotoxicity |
| --- | --- |
| Cc1ccc(S(=O)(=O)N(C)C[C@H]2Oc3c(NC(=O)c4nc5ccccc5s4)cccc3C(=O)N([C@@H](C)CO)C[C@H]2C)cc1 | -14.2% (inactive) |
| Cc1ccc(S(=O)(=O)N(C)C[C@@H]2Oc3ccc(NS(=O)(=O)c4ccc(Cl)cc4)cc3CC(=O)N([C@@H](C)CO)C[C@@H]2C)cc1 | 11.5% (inactive) |
| C[C@@H]1CN([C@@H](C)CO)C(=O)c2cccc(NC(=O)c3ccncc3)c2O[C@@H]1CN(C)Cc1ccc2c(c1)OCO2 | -12.5% (inactive) |
| C[C@H]1CN([C@@H](C)CO)C(=O)Cc2cc(NS(=O)(=O)c3ccc(F)cc3)ccc2O[C@@H]1CN(C)Cc1ccc(Cl)c(Cl)c1 | -12.6% (inactive) |
| Cc1ccc(S(=O)(=O)Nc2ccc3c(c2)CC(=O)N([C@@H](C)CO)C[C@@H](C)[C@@H](CN(C)Cc2ccc(Cl)c(Cl)c2)O3)cc1 | -67.6% (inactive) |
| C[C@H]1CN([C@@H](C)CO)C(=O)c2cccc(NC(=O)c3ccncc3)c2O[C@@H]1CN(C)Cc1ccccc1 | 10.2% (inactive) |
| Cc1ccc(S(=O)(=O)N(C)C[C@@H]2Oc3ccc(NS(=O)(=O)c4ccc(Cl)cc4)cc3CC(=O)N([C@H](C)CO)C[C@@H]2C)cc1 | -5.69% (inactive) |
| C[C@H]1CN([C@@H](C)CO)C(=O)c2cccc(NC(=O)c3ccncc3)c2O[C@@H]1CN(C)CC1CCCCC1 | -19.3% (inactive) |
